We go through four molecules from patent publication US20170209408A1, “HSP90 INHIBITORS FOR THE TREATMENT OF OBESITY AND METHODS OF USE THEREOF” (The Children's Medical Center Corporation, priority 2014, published 2017).

The conditions of series [1]: rating from cited sources, cited from earlier work.
Series [2] relates to lean mice. Briefly: Body weight and food intake in 10-week old lean mice on chow diet, i.p. injection. Format: in vivo. Conditions: three weeks. On the procedure:
Gambogic acid was administered to 10-week old lean mice on chow diet at 0.5 mg/kg for three weeks by i.p. injections. […] Tanespimycin was administered to 10-week old lean mice on chow diet at 15 mg/kg for three weeks by i.p. injections. […] NVP-AUY922 was administered to 10-week old lean mice on chow diet at 15 mg/kg for three weeks by i.p. injections.

For series [3], the system named is HFD-fed obese mice. Briefly: Body weight and food intake in high fat diet (HFD)-fed obese mice, daily i.p. injection. Format: in vivo, C57Bl/6J mice. The note with it: three weeks, vs DMSO vehicle. On the procedure:
To investigate whether gambogic acid can act as an anti-obesity drug by increasing leptin sensitivity and reducing appetite, C57Bl/6J mice were placed on a high fat diet (HFD; Research Diets, D12451, 45 kcal % fat) feeding for 16 weeks. After establishment of obesity and leptin resistance, mice were administered gambogic acid (at 0.5 mg/kg, in 25 μl DMSO, once per day) and vehicle (DMSO, 25 μl) with intraperitoneal (i.p.) injection. The animals had free access to food and water unless otherwise stated. In all experiments, three days prior to drug administration, the animals went through an acclimation period where they were given DMSO (25 μl) to reduce the effect of stress created by i.p. injection. Following three days acclimation, mice were administered gambogic acid daily i.p. injections at 0.5 mg/kg for three weeks in 25 μl of DMSO as vehicle, whereas the control group received the same volume of DMSO. […] To investigate whether tanespimycin can act as an anti-obesity drug by increasing leptin sensitivity and reducing appetite, C57Bl/6J mice were placed on a high fat diet (HFD; Research Diets, D12451, 45 kcal % fat) feeding for 16 weeks. After establishment of obesity and leptin resistance, mice were administered tanespimycin (at 15 mg/kg, in 25 μl DMSO, once per day) and vehicle (DMSO, 25 μl) with intraperitoneal (i.p.) injection. The animals had free access to food and water unless otherwise stated. In all experiments, three days prior to drug administration, the animals went through an acclimation period where they were given DMSO (25 μ1) to reduce the effect of stress created by i.p. injection. Following three days acclimation, mice were administered tanespimycin daily i.p. injections at 15 mg/kg for three weeks in 25 μl of DMSO as vehicle, whereas the control group received the same volume of DMSO. […] To investigate whether NVP-AUY922 can act as an anti-obesity drug by increasing leptin sensitivity and reducing appetite, C57Bl/6J mice were placed on a high fat diet (HFD; Research Diets, D12451, 45 kcal % fat) feeding for 16 weeks. After establishment of obesity and leptin resistance, mice were administered NVP-AUY922 (at 15 mg/kg, in 25 μl DMSO, once per day) and vehicle (DMSO, 25 μl) with intraperitoneal (i.p.) injection. The animals had free access to food and water unless otherwise stated. In all experiments, three days prior to drug administration, the animals went through an acclimation period where they were given DMSO (25 μ1) to reduce the effect of stress created by i.p. injection. Following three days acclimation, mice were administered NVP-AUY922 daily i.p. injections at 15 mg/kg for three weeks in 25 μl of DMSO as vehicle, whereas the control group received the same volume of DMSO.

Series [4] concerns leptin receptor deficient (db/db) mice. Kind of series: Body weight and food intake in leptin receptor deficient (db/db) mice. Format: in vivo. Conditions: 0.5 mg/kg once a day. On the procedure:
To explore whether gambogic acid's effect is leptin dependent, gambogic acid (0.5 mg/kg, once a day, in 25μ1 DMSO) was administered to leptin receptor deficient (db/db) mice.

The mark [5] stands for this setting: 0.5 mg/kg i.p. once per day, 0.5 mg/kg.

“Also recorded” adds a separate entry of the source.

On to `[Cr]` [Chromium], for which, in series [1], the Safety result was “Likely safe”.

For the molecule `CCNC(=O)c1noc(-c2cc(C(C)C)c(O)cc2O)c1-c1ccc(CN2CCOCC2)cc1` [NVP-AUY922], the food intake result in series [2] (15 mg/kg i.p.) is recorded as “failed to induce bodyweight loss or food intake”. For the same molecule, the body weight entry in series [2] (15 mg/kg i.p., 15 mg/kg) was “little or no decrease; also recorded: failed to induce bodyweight loss”; in series [3] (15 mg/kg i.p. once per day) it was “significantly decreased”.

As to `CC(C)=CCC[C@]1(C)C=Cc2c(O)c3c(c(CC=C(C)C)c2O1)O[C@]12C(=C[C@@H]4C[C@H]1C(C)(C)O[C@@]2(C/C=C(/C)C(=O)O)C4=O)C3=O` [gambogic acid], the body weight result in series [2] (0.5 mg/kg i.p., 0.5 mg/kg) is “little or no decrease; also recorded: failed to induce bodyweight loss”; in series [4] (0.5 mg/kg), “continued to increase similar to the vehicle treated group; also recorded: not in db/db mice”; in series [3] (setting [5]), “significantly decreased; also recorded: decreased body weight”. For the same molecule, the food intake result is reported as “failed to induce bodyweight loss or food intake” in series [2] (0.5 mg/kg i.p., 0.5 mg/kg); “little or no effect” in series [2] (0.5 mg/kg i.p., listed as SR-03, 0.5 mg/kg); “continued to increase similar to the vehicle treated group” in series [4]; “significantly decreased” in series [3] (setting [5]); “significant decrease” in series [3] (0.5 mg/kg i.p. once per day, listed as SR-03, 0.5 mg/kg).

Turning to Conjugated linoleic acid, the Safety result in series [1] is listed as “Possibly safe”. Also, the Effectiveness result in series [1] (weight loss) is “Possibly effective”.
